Measured values from patent US12063929B2, “3′-alkynyl abscisic acid derivatives as ABA antagonists” (University of Saskatchewan, priority 2018, dated 2024).

Legend:
wheat = assay: Wheat radical elongation assay; type: in vivo; settings: 10 μM 1019 alone, 3.0 days post treatment (FIG. 11C)
Description: (§1) Seeds were surface sterilized by incubation in 10% bleach for 20 min with shaking, then rinsed four times with sterile water. Four ml of test solutions were pipetted into petri dishes (100×15 mm) that contain a single filter paper. Fifteen seeds were added to each dish. For rice, barely, and wheat, the experiment involved five treatments (5 μM ABA; 5 μM ABA+10 μM 1019; 10 μM 1019; water control; water+EtOH+NaOH control), with three replications per treatment. For sorghum, treatments were 10 μM ABA; 10 μM ABA+20 μM 1019; 20 μM 1019; water control; water+EtOH+NaOH control. Dishes were sealed with Parafilm, and incubated in the dark at room temperature. Radical length was measured daily post emergence using ImageJ software; shown are 3 days post treatment for barley, wheat and sorghum and 4.5 days post treatment for rice.

Botrytis cinerea = assay: Pathogenicity test on detached Arabidopsis thaliana leaves; type: in vivo
[1] = tested on: ABA-inducible promoter of the MKKK18 gene (GUS reporter); assay: ABA-inducible gene expression, MKKK18GUS reporter plants; type: in vivo, Arabidopsis; set-up: antagonist effect, GUS staining: dose or concentration left out as unconfirmed
Description: Transgenic MKKK18GUS Arabidopsis plants harbor an […] (GUS) reporter gene fused to an ABA-inducible promoter of the MKKK18 gene (Okamoto et al. 2013). Six-day-old MKKK18GUS plants were treated with ABA1019 alone or both ABA1019 and ABA for 6 hours. Plants were then stained with 5-bromo-4-chloro-3-indolyl-beta-D-glucuronic acid cyclohexyl ammonium salt (X-Glc) for 14 hours, and destained with 70% ethanol.

Lentil (CDC Maxim) = Lentil (CDC Maxim) seed germination assay; type: in vivo
Description: 40 seeds were counted for each 100×15 mm petri dishes. Each petri dish contained two filter papers and 10 mL of test solutions. Then, they were wrapped with aluminium foil to cut off light. Wrapped plates were kept on lab bench at room temperature. Germinated seeds were counted everyday until one treatment reaches 100% germination (two days). Only light exposure was during plate counting. […]
All seeds from this experiment have been rinsed first with tap water and then with dH2O, frozen in liquid nitrogen and stored at −80° C. freezer.

barley = assay: Barley radical elongation assay; type: in vivo; settings: 10 μM 1019 alone, 3.0 days post treatment (FIG. 11B)
Description: as §1

[2] = tested on: RIL from L. culinaris var Redberry x L. culinaris ssp. orientalis IG72595; assay: Lentil RIL germination, emergence and time to flowering (F5-F7, F7 experiment); type: in vivo
Text: • DSTG=Days from seeding to germination • DSTE=Days from seeding to Emergence • DSTF=Days from seeding to flowering • DSTH=Days from seeding to harvesting of first seed (F7 was not included because the purpose of this generation was to harvest as many seeds as possible) • GA3=gibberellic acid • DMSO=solvent required for dissolving 1019-ABA F7 Experiment
Objective: Testing the effect of soaking seeds of the F7 generation in four solutions listed below.
Treatments: water, DMSO, 1019-ABA, and 1019-ABA for 1 day followed by 100 μM GA3
Plant material: Seeds derived from a cross between L. culinaris var Redberry and L. culinaris ssp. orientalis IG72595
Experimental set up: 207 RIL-lines in total; 4 seeds (repetitions) per line; 4 treatments
Data collection: Days from seeding to germination (DSTG), days from seeding to emergence (DSTE), and Days from seeding to first flower were counted. Days from seeding to first harvest was not determined because we needed as many seeds as possible in this generation.
Days to germination (DSTG), emergence (DSTE), time to flowering (DSTF) and first harvest (DSTH) were determined during the development of a recombinant inbred line (RIL) developed from a cross between L. culinaris var Redberry and L. culinaris ssp. orientalis IG72595. The aim of the project was to find and incorporate Aphanomyces root rot resistance into the cultivated lentil, and the L. orientalis accession was identified with improved resistance. During the development of this RIL line speed breeding techniques were applied i.e. warmer temperatures, longer day length, higher light intensity, restricted pot volume etc. In generation F5, the exemplary compound became available and was tested on germination and emergence. […] The F7 generation was set up as a proper experiment with four treatments i.e. 1019, water, DMSO (solvent needed for dissolving exemplary compound 1019), and exemplary compound 1019 for one day followed by 100 μM GA3 (FIG. 12).

Hard Red Spring wheat = Hard Red Spring wheat seedling growth (root and shoot length); type: in vivo
Description: For each treatment 3 replicates of 10 seeds were plated into petri dishes lined with two filter papers and 10 mL of test solution. The covered dishes were stored at room temperature in the dark. At 72 hours, germinated seeds were scored for root length and shoot length. The following dosages were used when studying the effect of the exemplary ABA analogues of the application on wheat shoot and root growth: control 1% DMSO. 10 μM ABA, 10 μM 1019, 100 μM exemplary compound 1019, 10 μM exemplary compound 1019 plus 10 μM ABA […] and 100 μM exemplary compound 1019 plus 10 μM ABA […].

[3] = F7 experiment, 207 lines (Table 2)
[4] = generation F7, 819 seeded (Table 1)

## CC1=C(C#Cc2ccccc2)C(=O)CC(C)(C)[C@@]1(O)/C=C/C(C)=C\C(=O)O [Compound 1019, (2Z,4E)-5-((S)-1-Hydroxy-2,6,6-trimethyl-4-oxo-3-(phenylethynyl)cyclohex-2-en-1-yl)-3-methylpenta-2,4-dienoic acid]
wheat
  radical length (Least Square mean); radical elongation: 2.386
Botrytis cinerea; 100 μM spray, 24 hours post inoculation (FIG. 14)
  disease lesions: smaller lesions
Botrytis cinerea; 100 μM spray, preliminary results
  disease development caused by B. cinerea: partially inhibits
Botrytis cinerea; plants sprayed with 100 μM, versus mock control
  symptom development: slower
[1]; 2.5 μM applied alone, 6 hours
  agonist activity, GUS staining: weak agonist activity
[1]; 1:1 ratio with ABA
  GUS staining compared to ABA alone: a reduction in the GUS staining
[1]; co-applied with ABA, dose dependent
  antagonist effect, GUS staining: potent antagonist effect
[1]; ratio of compound to ABA 10:1
  GUS staining compared to ABA alone: abolition of the ABA GUS stain
Lentil (CDC Maxim); 10 μM ABA plus 10 μM compound (FIG. 6C)
  lentil seed germination, antagonism of ABA: strongest antagonist
Lentil (CDC Maxim); 10 μM compound and 10 μM compound plus 10 μM ABA (FIG. 5)
  lentil seed germination: promoted
Lentil (CDC Maxim); 100 μM compound plus 10 μM ABA (FIG. 6B)
  lentil seed germination: overcame the effect
barley
  radical length (Least Square mean); radical elongation: 2.83
[2]; F7 experiment
  emergence rate: 100%
[2]; [3]
  % Germ.: 99%
  Germ. (number of seeds germinated): 807
[2]; F7 experiment, 207 lines (Table 2), listed as 1019-ABA
  % Germ.: 98.9%
[2]; F7 experiment, four days after seeding (FIG. 12B)
  seeds emerged: 81%
[2]; F7 experiment, on average
  days earlier flowering than water treatment: 4 days
[2]; generation CVF6
  DSTE (days from seeding to emergence): 4.03 days
  DSTF (days from seeding to flowering): 26.14 days
  DSTG (days from seeding to germination): 1.12 days
  DSTH (days from seeding to harvesting of first seed): 44.02 days
[2]; generation CVF6, 226 seeded
  Emerged (number of seeds emerged): 226
  Germ. (number of seeds germinated): 226
[2]; generation F5
  DSTE (days from seeding to emergence): 4.93 days
  DSTF (days from seeding to flowering): 28.22 days
  DSTG (days from seeding to germination): 2.18 days
  DSTH (days from seeding to harvesting of first seed): 45.41 days
[2]; generation F5, 231 seeded
  Emerged (number of seeds emerged): 225
  Germ. (number of seeds germinated): 230
[2]; [4]
  Emerged (number of seeds emerged): 791
  Germ. (number of seeds germinated): 816
Hard Red Spring wheat; 10 μM compound plus 10 μM ABA, 72 h (FIG. 9A)
  root growth: restored root growth to close to control length
Hard Red Spring wheat; 100 μM compound alone, 72 h
  root growth: not affected
  shoot growth: not inhibited
Hard Red Spring wheat; 100 μM compound plus 10 μM ABA, 72 h (FIG. 9A)
  root growth: restored root growth to close to control length
Hard Red Spring wheat; compound plus 10 μM ABA, 72 h (FIG. 9B)
  shoot growth: restored
